Laboratory results taken from patent publication US11344510B2, “Arylcyclohexylamine derivatives and their use in the treatment of psychiatric disorders” (Gilgamesh Pharmaceuticals, Inc., priority 2019, dated 2022).

Tests used:
[1] = molecular target: T1, norepinephrine transporter (NET) (Homo sapiens, UniProt P23975); experiment: Fluorescent substrate uptake inhibition, NET; assay type: cell-based; conditions: for inhibition at 10 µM: HEK293 cells expressing NET
T1 construct: expressed in transfected cells; host or cells: HEK293
T1 sequence (P23975 whole entry, species assumed): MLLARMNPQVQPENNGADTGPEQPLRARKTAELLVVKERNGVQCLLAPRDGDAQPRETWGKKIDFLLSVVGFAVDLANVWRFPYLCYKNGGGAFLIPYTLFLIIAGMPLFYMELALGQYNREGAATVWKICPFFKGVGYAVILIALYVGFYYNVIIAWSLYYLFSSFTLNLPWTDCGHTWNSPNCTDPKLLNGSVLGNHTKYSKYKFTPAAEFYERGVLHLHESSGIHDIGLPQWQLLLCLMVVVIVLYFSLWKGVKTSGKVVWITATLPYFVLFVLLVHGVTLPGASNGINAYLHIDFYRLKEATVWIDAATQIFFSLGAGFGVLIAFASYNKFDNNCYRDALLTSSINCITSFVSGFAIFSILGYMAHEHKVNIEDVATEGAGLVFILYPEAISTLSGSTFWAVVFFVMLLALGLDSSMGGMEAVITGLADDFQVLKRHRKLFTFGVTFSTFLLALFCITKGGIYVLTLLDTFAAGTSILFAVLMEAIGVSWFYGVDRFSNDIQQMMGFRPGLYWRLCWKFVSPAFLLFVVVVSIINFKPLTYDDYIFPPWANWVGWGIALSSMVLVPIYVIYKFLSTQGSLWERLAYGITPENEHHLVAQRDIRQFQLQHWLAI

[2] = molecular target: T2, serotonin transporter (SERT) (Homo sapiens, UniProt P31645); experiment: Fluorescent substrate uptake inhibition, SERT; assay type: cell-based; conditions: for inhibition at 10 µM: HEK293 cells expressing SERT
T2 construct: expressed in transfected cells; host or cells: HEK293
T2 sequence (P31645 whole entry, species assumed): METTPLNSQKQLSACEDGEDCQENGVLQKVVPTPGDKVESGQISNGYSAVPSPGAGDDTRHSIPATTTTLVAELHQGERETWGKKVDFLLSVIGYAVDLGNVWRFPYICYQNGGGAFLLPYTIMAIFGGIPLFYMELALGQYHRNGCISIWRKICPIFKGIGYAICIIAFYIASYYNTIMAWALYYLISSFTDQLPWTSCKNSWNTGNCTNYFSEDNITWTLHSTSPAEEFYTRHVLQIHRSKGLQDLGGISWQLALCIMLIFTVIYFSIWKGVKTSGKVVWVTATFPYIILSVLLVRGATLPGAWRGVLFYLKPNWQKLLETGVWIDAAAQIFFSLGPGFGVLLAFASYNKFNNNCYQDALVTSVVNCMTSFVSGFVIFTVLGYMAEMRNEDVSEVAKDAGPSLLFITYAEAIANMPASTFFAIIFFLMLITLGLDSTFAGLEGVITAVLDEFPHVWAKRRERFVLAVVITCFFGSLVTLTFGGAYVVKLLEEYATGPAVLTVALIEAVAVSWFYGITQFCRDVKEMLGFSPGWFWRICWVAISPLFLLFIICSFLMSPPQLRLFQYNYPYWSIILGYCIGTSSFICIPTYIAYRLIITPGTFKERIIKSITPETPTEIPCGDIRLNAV

[3] = MLM stability (Low Activity); assay type: in vitro ADME, CD-1 mice; conditions: male, CD-1, mouse, liver microsomes, pH 7.4, Condition 1 (Low Activity), 0.50 mg protein/mL
Procedure, shortened: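 Pooled male CD-1 mouse liver microsomes (0.50 mg/mL) with 1 μM compound and 1 mM NADPH in 100 mM PBS pH 7.4 with 1 mM MgCl2, 37 °C, six time points over 60 min. Parent remaining by LC-MS/MS; kel, t1/2 and Clint from linear regression of ln(AUC) versus time.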

[4] = tested on: monoamine transporters, MATs (SERT, NET, DAT, VMAT2); experiment: Monoamine uptake inhibition, monoamine transporters collectively; assay type: cell-based; conditions: in words
Method: The ability of the compounds of the present invention to inhibit uptake of monoamines by the serotonin transporter (SERT), norepinephrine transporter (NET), dopamine transporter (DAT), and vesicular monoamine transporter 2 (VMAT2) (collectively monoamine transporters, MATs) was measured using fluorescent substrate uptake assays in transfected cells (Table 14). The binding affinities of select compounds were also determined in radioligand displacement assays at SERT, NET, and/or DAT (Table 14).
Uptake Inhibition. The ability of test compounds to block monoamine uptake by SERT, NET, DAT, and VMAT2 was determined using the Neurotransmitter Transporter Uptake Assay Kit manufactured by Molecular Devices (Cat #R8173). Briefly, stably transfected cells expressing the MAT of interest (HEK293 cells for SERT and NET; CHO cells for DAT) were grown and plated into 384-well plates at a concentration of 20,000 cells per well. Plates were then incubated for 16-20 h at 37° C. and 5% CO2. The medium was then aspirated and replaced with 25 μL of assay buffer (20 mM HEPES in HBSS, containing 0.1% BSA) containing the test compounds at the appropriate concentrations. Plates were then centrifuged at 300 rpm for 15 s and then incubated at 37° C. for 30 minutes. At this time, 25 μL of the proprietary fluorescent dye solution was added, the plates were incubated at 37° C. for 60 minutes, and then fluorescence was quantified on a plate reader (excitation wavelength=440 nm, emission wavelength=520 nm). The proprietary dye solution contains a mixture of 1) a fluorescent dye that mimics the endogenous substrates of MATs and is thereby actively transported to the intracellular compartment in the absence of an inhibitor and 2) a masking dye that inhibits the fluorescence of dye 1 in the extracellular compartment. Therefore, the overall fluorescence of the system increases as the fluorescent dye is transported into the cells.

[5] = molecular target: T3, dopamine transporter (DAT) (Homo sapiens, UniProt Q01959); experiment: Fluorescent substrate uptake inhibition, DAT; assay type: cell-based; conditions: for inhibition at 10 µM: CHO cells expressing DAT
T3 construct: expressed in transfected cells; host or cells: CHO (uptake)
T3 sequence (Q01959 whole entry, species assumed): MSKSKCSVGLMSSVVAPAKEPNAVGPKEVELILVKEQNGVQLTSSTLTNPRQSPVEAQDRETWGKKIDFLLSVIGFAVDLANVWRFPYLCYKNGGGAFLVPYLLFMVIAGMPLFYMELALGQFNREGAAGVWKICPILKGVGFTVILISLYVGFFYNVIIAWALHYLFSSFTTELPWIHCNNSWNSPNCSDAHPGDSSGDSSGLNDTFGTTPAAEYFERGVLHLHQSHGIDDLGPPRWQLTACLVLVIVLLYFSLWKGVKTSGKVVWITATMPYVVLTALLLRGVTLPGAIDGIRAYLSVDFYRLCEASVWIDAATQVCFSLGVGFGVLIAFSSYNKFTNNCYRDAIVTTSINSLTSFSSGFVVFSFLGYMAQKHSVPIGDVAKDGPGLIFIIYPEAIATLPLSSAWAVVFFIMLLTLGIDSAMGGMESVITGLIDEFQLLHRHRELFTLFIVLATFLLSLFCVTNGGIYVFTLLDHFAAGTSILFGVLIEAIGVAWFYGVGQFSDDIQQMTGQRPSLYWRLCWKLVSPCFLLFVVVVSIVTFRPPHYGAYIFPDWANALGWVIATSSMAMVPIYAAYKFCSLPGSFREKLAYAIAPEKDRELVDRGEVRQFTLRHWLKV

[6] = RLM stability (Low Activity); assay type: in vitro ADME, Sprague Dawley rats; conditions: male, Sprague Dawley, rat, liver microsomes, pH 7.4, Condition 1 (Low Activity), 0.50 mg protein/mL
Procedure, shortened: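 Pooled male Sprague Dawley rat liver microsomes (0.50 mg/mL) in PBS pH 7.4 with 1 mM MgCl2 and 1 mM NADPH; compound 1 μM, 1.0% solvent, 37° C. Six time points over 60 min, parent remaining by LC-MS/MS; kel, t1/2 and Clint from linear regression of ln(AUC) versus time.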

SERT = molecular target: T4, SERT (Homo sapiens, UniProt P31645); experiment: SERT radioligand binding with [3H]imipramine
T4 construct: expressed in transfected cells; host or cells: HEK293
T4 sequence (P31645 whole entry, species assumed): as the sequence (P31645 whole entry, species assumed) above
Method: (§1) Radioligand Binding. Affinity of the test compounds for SERT, NET, and DAT was determined in radioligand binding experiments with [^3H]imipramine, [^3]nisoxetine, and [^3H]WIN35,428, respectively, by WuXi AppTec (Hong Kong) Limited, under the conditions described in Table 15.

NET = molecular target: T5, NET (Homo sapiens, UniProt P23975); experiment: NET radioligand binding with [3H]nisoxetine
T5 construct: expressed in transfected cells; host or cells: HEK293
T5 sequence (P23975 whole entry, species assumed): as the sequence (P23975 whole entry, species assumed) above
Method: as §1

| SMILES | inhibition at 10 µM [1] [%] | inhibition at 10 µM [2] [%] | half-life at 1 μM [3] [min] | microsomal CLint at 1 μM [3] [µL/min/mg] | selectivity for NMDAR (over MATs) [4] | inhibition at 10 µM [5] [%] | half-life at 1 μM [6] [min] | microsomal CLint at 1 μM [6] [µL/min/mg] | IC50 [1] [µM] | IC50 [2] [µM] | Ki (SERT) [µM] | Ki (NET) [µM] | IC50 [5] [µM] |
| --- | --- | --- | --- | --- | --- | --- | --- | --- | --- | --- | --- | --- | --- |
| N[C@]1(c2ccccc2)CCCCC1=O [Compound 11S, (S)-2-amino-2-phenyl-cyclohexan-1-one] | 14.8 | -2.6 | > 145 | < 9.6 | greater selectivity for NMDAR | 10.1 |  |  |  |  |  |  |  |
| N[C@@]1(c2ccccc2)CCCCC1=O [Compound 11R, (R)-2-amino-2-phenyl-cyclohexan-1-one] | 10.4 | 0.19 | > 145 | < 9.6 |  | -11.8 |  |  |  |  |  |  |  |
| Cc1ccccc1[C@@]1(N)CCCCC1=O [Compound 114S, (S)-2-amino-2-(o-tolyl)cyclohexan-1-one] | 10.4 | -4 | 80.9 | 17.1 | greater selectivity for NMDAR | -15.2 | 25.4 | 54.5 |  |  |  |  |  |
| CN[C@]1(c2cccc(F)c2)CCCCC1=O [Compound 19S, (5)-2-(3-fluorophenyl)-2-(methylamino)cyclohexan-1-one] | 10.3 | 20.6 |  |  | greater selectivity for NMDAR | 18.1 |  |  |  |  |  |  |  |
| O=C1CCCC[C@]1(c1ccccc1)N1CCC1 [Compound 84R, (R)-2-(azetidin-1-yl)-2-phenyl-cyclohexan-1-one] | 29.1 | 75.2 |  |  |  | 28.2 |  |  | 15.4 | 0.8 | 0.6 | 77.8 | 19.4 |
| CN[C@]1(c2ccccc2)CCCCC1=O [Compound 14S, (S)-2-(methylamino)-2-phenylcyclohexan-1-one] | 1.8 | 17 |  |  |  | -4.5 |  |  |  | 30.6 | 45.1 |  |  |
| COCCNC1(c2ccccc2)CCCCC1=O (racemic) [Compound 29rac, 2-((2-methoxyethyl)amino)-2-phenylcyclohexan-1-one] |  |  |  |  | greater selectivity for NMDAR |  |  |  |  |  |  |  |  |
| O=C1CCCC[C@@]1(c1ccccc1)N1CCC1 [Compound 84S, (S)-2-(azetidin-1-yl)-2-phenyl-cyclohexan-1-one] | 34.9 | 91.9 |  |  |  | 32.2 |  |  | 29.7 | 0.94 | 0.72 | 53.8 | 19.5 |
| Cc1ccccc1[C@]1(N)CCCCC1=O [Compound 114R, (R)-2-amino-2-(o-tolyl)cyclohexan-1-one] | 7.7 | 23.4 | 43.7 | 31.7 |  | 6.2 | 27.6 | 50.3 |  |  |  |  |  |
| CN[C@@]1(c2ccccc2)CCCCC1=O [Compound 14R, (R)-2-(methylamino)-2-phenylcyclohexan-1-one] | 1.7 | 19.3 |  |  | greater selectivity for NMDAR | -4.5 |  |  |  | 45.5 | 40 |  |  |
| O=C1CCCCC1(c1ccccc1)N1CCCC1 (racemic) [Compound 27rac, 2-phenyl-2-(pyrrolidin-1-yl)cyclohexan-1-one] | 40.8 | 88.6 |  |  |  | 49.5 | 35.4 | 39.1 | 4.9 | 0.45 | 0.11 | 11.5 | 6.5 |
| [2H]C([2H])([2H])N[C@@]1(c2ccccc2)CCCCC1=O [Compound 88R, (R)-2-((methyl-d3)amino)-2-phenylcyclohexan-1-one] | 10.6 | 25.9 |  |  | greater selectivity for NMDAR | 7.9 |  |  |  |  |  |  |  |
